# Assay results reported in article PMC10449632, “Structural basis for translation inhibition by the glycosylated drosocin peptide” (Nature Chemical Biology, 2023).
# No end group written: not given here. *: point of attachment. αGalNAc = CC(=O)N[C@@H]1[C@@H](O)[C@@H](O)[C@@H](CO)O[C@@H]1*
# Experiments:
# Format in all cases: cell-based, Escherichia coli
# [1] = system: E. coli Keio ∆sbmA (BW25113 ΔsbmA); assay: Antibiotic susceptibility (growth) assay, E. coli Keio ΔsbmA; settings: 30 μM peptide, average of three biological replicates
# Source text: Many PrAMPs use the SbmA transporter to pass through the E. coli inner membrane[4],[10],[31]; however, whether drosocin also uses SbmA remains, to our knowledge, unknown. To address this, we monitored the effect of the presence of diverse drosocin peptides (Fig. 1a,b and Supplementary Fig. 1a) on the growth of the wild-type E. coli strain BW25113 containing SbmA or lacking SbmA (ΔsbmA) (Fig. 1c,d). We compared unmodified drosocin (Dro) with various modified forms (Fig. 1a,b). The modified forms included the naturally occurring Dro1 and Dro2 that carry either a monosaccharide (α-D-GalNAc) or disaccharide (β-D-Gal(1→3)-α-D-GalNAc) attached to Thr11, respectively (Fig. 1b). In addition, we examined the previously reported[23],[24] drosocin derivatives bearing β-D-Maltosyl (Dro3), α-D-GlcNAc (Dro4), β-D-Gal (Dro5), β-D-Glc (Dro6), β-D-Lactosyl (Dro7) and β-D-Cellobiosyl (Dro8) modifications on Thr11 (Fig. 1a,b and Supplementary Fig. 1a). Finally, we also included in our analysis the synthetic unmodified drosocin derivative with proline substitutions at positions 7, 11 and 12 (Dro-3P) (Fig. 1a), which was previously reported to have similar antimicrobial activity to the monosaccharide form of drosocin[25]. Growth was monitored in both rich (LB) and minimal medium in the presence of 30 μM of each peptide and normalized with the growth in the absence of the compounds (Methods). […] We also observed no inhibition for Dro2 nor for any of the β-linked disaccharides (Dro3, Dro6 or Dro7). […] By contrast, all drosocin peptides inhibited growth of the E. coli BW25113 strain in minimal medium, albeit to different extents (Fig. 1d).
# (§1) Strains E. coli Keio wild-type and E. coli Keio ΔsbmA used from the Keio knockout collection (Horizon, https://horizondiscovery.com). Wild-type E. coli SQ110 (ΔrrnGADBHC(ptRNA67))[47] and SQ171 (ΔrrnGADEHBC(pKK3535, ptRNA67))[47] strains and related mutants E. coli SQ110 A2059G and E. coli SQ171 A2503G were obtained from the previous Api137 study. E. coli strains SQ171 bearing A752G, U2609C and A752G:U2609C mutations[43] and E. coli SQ171 U2609G[48] were generated previously.
# The susceptibility of E. coli strains to compounds was evaluated by monitoring the bacterial growth in presence of increasing concentrations of the compound of interest. In brief, bacteria were inoculated in a total volume of 100 μl of medium contained in a well of a 96-well microplate (round bottom, with cap, sterile; Sarstedt). The medium used was either LB, as rich medium, or ATCC medium (778 Davis and Mingioli glucose minimal medium), as minimal medium. Before inoculation, bacteria were grown up to exponential phase and then inoculated into the culture mix, containing selective antibiotic if necessary, with an initial optical density at 600 nm (OD600) of 0.05. Values measured from wells containing just the medium were used as a blank. The growth in each well was monitored by measuring the OD600 every 10 minutes for a total of 20 hours at 37 °C with shaking using a plate reader (Tecan Infinite 200 PRO). The inhibition resulting from a compound’s concentration was evaluated by normalizing the OD600 at t = 12 hours (corresponding to the end of the log phase) from the treated culture to the untreated one. For each compound, the concentrations tested were 5 μM, 10 μM and 30 μM. Each single titration assay was done in triplicate with individually prepared culture mixes. For each concentration, the standard deviation was calculated, taking into account each single replica and its specific technical error from the plate reader.
# [2] = system: E. coli SQ110 A2059G; assay: Antibiotic susceptibility (growth) assay, E. coli SQ110 A2059G; settings: A2059G mutation; LB medium; 5, 10, 30 μM
# Source text: as §1
# (§2) The susceptibility of E. coli strains to compounds was evaluated by monitoring the bacterial growth in presence of increasing concentrations of the compound of interest. […] Values measured from wells containing just the medium were used as a blank. The growth in each well was monitored by measuring the OD600 every 10 minutes for a total of 20 hours at 37 °C with shaking using a plate reader (Tecan Infinite 200 PRO). The inhibition resulting from a compound’s concentration was evaluated by normalizing the OD600 at t = 12 hours (corresponding to the end of the log phase) from the treated culture to the untreated one. […] For each concentration, the standard deviation was calculated, taking into account each single replica and its specific technical error from the plate reader.
# [3] = system: E. coli SQ171 A2503G; assay: Antibiotic susceptibility (growth) assay, E. coli SQ171 A2503G; settings: A2503G mutation; LB medium; 5, 10, 30 μM
# Source text: as §1, §2
Substance,Average of normalized growth ([1]; LB rich medium) [%],Average of normalized growth ([1]; Minimal medium) [%],resistance of mutant compared to the wild-type strain [2],resistance of mutant compared to the wild-type strain [3]
"Dro: unmodified drosocin, 19 amino acid proline-rich antimicrobial peptide lacking O-glycosylation (GKPRPYSPRPTSHPRPIRV; Drosocin; UniProt P36193 22-40, looked up)",102,102,–,–
"Dro1: naturally occurring drosocin carrying monosaccharide α-D-GalNAc attached to Thr11 (GKPRPYSPRPT(αGalNAc)SHPRPIRV; UniProt P36193 22-40, looked up)",99,106,more resistant,more resistant
